Laboratory results: patent US11596639B2, “Substituted indole Mcl-1 inhibitors” (Vanderbilt University, priority 2016, dated 2023)

What follows are compounds tested on H929 human cancer cell lines (assay: Cellular viability / proliferation (Cell TiterGlo, 72 h)). Conditions: Homo sapiens, NCI-H929, 72 h, read-out: GI50 on cellular proliferation of H929 human cancer cell lines, H929 cells, 72 h, Cell TiterGlo, 10% FBS.
Type: cell-based
Protocol: Cellular Viability of Human Tumor Cell Lines
To evaluate compound effect on cellular proliferation, cells were plated at 1,000 cells/well in 96-well tissue culture plates in a total volume of 90 μL medium supplemented with 10% FBS (Sigma, Saint Louis, Mo.). 24 hours later, 10 μL of compound (in a 2-fold serial dilution) is added to the cells for a top concentration of 50 μM and a final DMSO concentration <1%. After 72 hours, 50 μL of Cell TiterGlo (Promega, Madison, Wis., USA) reagent is added to each well and plates are incubated at room temperature, in the dark, for 30 minutes. Luminescence is measured on a BioTek Cytation 3. Luminescence values are imported into a template in XLFit (Guildford, Surrey, UK) that uses a four-parameter fit to generate an IC50 value for each compound dilution series on the plate.

Row | SMILES | GI50
1 | COc1ccc(N2C[C@@H](C)n3c(c(CCCOc4cc(C)c(Cl)c(C)c4)c4ccc(Cl)c(-c5c(C)nc(CN6CCN(C)CC6)nc5C)c43)C2=O)c2c1cc(C(=O)O)n2Cc1ccccn1 [Example 492, (R)-7-(7-Chloro-10-(3-(4-chloro-3,5-dimethylphenoxy)propyl)-6-(4,6-dimethyl-2-((4-methylpiperazin-1-yl)methyl)pyrimidin-5-yl)-4-methyl-1-oxo-3,4-dihydropyrazino[1,2-a]indol-2(1H)-yl)-4-methoxy-1-(pyridin-2-ylmethyl)-1H-indole-2-carboxylic acid] | 360 nM
2 | Cc1cc(OCCCc2c3n(c4c(-c5c(C)nn(C)c5C)c(Cl)ccc24)[C@H](C)CN(c2cccc4c(C(N)=O)cn(C)c24)C3=O)cc(C)c1Cl [Example 357, (R)-7-(7-Chloro-10-(3-(4-chloro-3,5-dimethylphenoxy)propyl)-4-methyl-1-oxo-6-(1,3,5-trimethyl-1H-pyrazol-4-yl)-3,4-dihydropyrazino[1,2-a]indol-2(1H)-yl)-1-methyl-1H-indole-3-carboxamide] | 2000 nM
3 | Cc1cc(OCCCc2c3n(c4c(-c5c(C)nn(C)c5C)c(Cl)ccc24)[C@H](C)CN(c2cc(N(C)C(=O)CN4CCCCC4)cc4c(C(=O)O)cn(C)c24)C3=O)cc(C)c1Cl [Example 612, (R)-7-(7-chloro-10-(3-(4-chloro-3,5-dimethylphenoxy)propyl)-4-methyl-1-oxo-6-(1,3,5-trimethyl-1H-pyrazol-4-yl)-3,4-dihydropyrazino[1,2-a]indol-2(1H)-yl)-1-methyl-5-(N-methyl-2-(piperidin-1-yl)acetamido)-1H-indole-3-carboxylic acid] | 7600 nM
4 | Cc1cc(OCCCc2c3n(c4c(-c5c(C)nn(C)c5C)c(Cl)ccc24)CCCN(c2cc(C(=O)O)c4ccn(C)c4c2)C3=O)cc(C)c1Cl (single isomer, unassigned) [Example 431, 6-(8-Chloro-11-(3-(4-chloro-3,5-dimethylphenoxy)propyl)-1-oxo-7-(1,3,5-trimethyl-1H-pyrazol-4-yl)-4,5-dihydro-1H-[1,4]diazepino[1,2-a]indol-2(3H)-yl)-1-methyl-1H-indole-4-carboxylic acid] | 2900 nM
5 | Cc1cc(N2C[C@@H](C)n3c(c(CCCOc4cc(C)c(Cl)c(C)c4)c4ccc(Cl)c(-c5c(C)nn(C)c5C)c43)C2=O)c2c(c1)cc(C(=O)O)n2CCN1CCOCC1 [Example 597, (R)-7-(7-chloro-10-(3-(4-chloro-3,5-dimethylphenoxy)propyl)-4-methyl-1-oxo-6-(1,3,5-trimethyl-1H-pyrazol-4-yl)-3,4-dihydropyrazino[1,2-a]indol-2(1H)-yl)-5-methyl-1-(2-morpholinoethyl)-1H-indole-2-carboxylic acid] | 690 nM
6 | Cc1cc(OCCCc2c3n(c4c(-c5c(C)nn(C)c5C)c(Cl)ccc24)CCCN(c2cn(C)c4cc(C(=O)O)ccc24)C3=O)cc(C)c1Cl [Example 68, 3-(8-Chloro-11-(3-(4-chloro-3,5-dimethylphenoxy)propyl)-1-oxo-7-(1,3,5-trimethyl-1H-pyrazol-4-yl)-4,5-dihydro-1H-[1,4]diazepino[1,2-a]indol-2(3H)-yl)-1-methyl-1H-indole-6-carboxylic acid] | 350 nM
7 | Cc1cc(OCCCc2c3n(c4c(-c5c(C)n[nH]c5C)c(Cl)ccc24)[C@H](C)CN(c2cccc4c(C(=O)O)cn(C)c24)C3=O)cc(C)c1Cl [Example 108, (R)-7-(7-chloro-10-(3-(4-chloro-3,5-dimethylphenoxy)propyl)-6-(3,5-dimethyl-1H-pyrazol-4-yl)-4-methyl-1-oxo-3,4-dihydropyrazino[1,2-a]indol-2(1H)-yl)-1-methyl-1H-indole-3-carboxylic acid] | 880 nM
8 | COCCn1c(C(=O)O)cc2cc(C)cc(N3C[C@@H](C)n4c(c(CCCOc5cc(C)c(Cl)c(C)c5)c5ccc(Cl)c(-c6c(C)nc(CN7CCN(C)C(=O)C7)nc6C)c54)C3=O)c21 [Example 729, (R)-7-(7-chloro-10-(3-(4-chloro-3,5-dimethylphenoxy)propyl)-6-(4,6-dimethyl-2-((4-methyl-3-oxopiperazin-1-yl)methyl)pyrimidin-5-yl)-4-methyl-1-oxo-3,4-dihydropyrazino[1,2-a]indol-2(1H)-yl)-1-(2-methoxyethyl)-5-methyl-1H-indole-2-carboxylic acid] | 260 nM
9 | Cc1cc(OCCCc2c3n(c4c(-c5c(C)nn(C)c5C)c(Cl)ccc24)CCCN(Cc2cc(C(=O)O)ccn2)C3=O)cc(C)c1Cl [Example 43, 2-((8-Chloro-11-(3-(4-chloro-3,5-dimethylphenoxy)propyl)-1-oxo-7-(1,3,5-trimethyl-1H-pyrazol-4-yl)-4,5-dihydro-1H-[1,4]diazepino[1,2-a]indol-2(3H)-yl)methyl)isonicotinic acid] | 9400 nM
10 | Cc1cc(OCCCc2c3n(c4c(-c5c(C)nn(C)c5C)c(Cl)ccc24)CCCN(c2ccc(C(=O)O)c4ccn(C)c24)C3=O)cc(C)c1Cl [Example 55, 7-(8-Chloro-11-(3-(4-chloro-3,5-dimethylphenoxy)propyl)-1-oxo-7-(1,3,5-trimethyl-1H-pyrazol-4-yl)-4,5-dihydro-1H-[1,4]diazepino[1,2-a]indol-2(3H)-yl)-1-methyl-1H-indole-4-carboxylic acid] | 5700 nM
11 | COc1ccc(N2C[C@@H](C)n3c(c(CCCOc4cc(C)c(Cl)c(C)c4)c4ccc(Cl)c(-c5c(C)nn(C)c5C)c43)C2=O)c2c1c(C(=O)O)cn2Cc1cccc(C)n1 [Example 622, (R)-7-(7-chloro-10-(3-(4-chloro-3,5-dimethylphenoxy)propyl)-4-methyl-1-oxo-6-(1,3,5-trimethyl-1H-pyrazol-4-yl)-3,4-dihydropyrazino[1,2-a]indol-2(1H)-yl)-4-methoxy-1-((6-methylpyridin-2-yl)methyl)-1H-indole-3-carboxylic acid] | 920 nM

Same assay, conditions: read-out: GI50 on cellular proliferation of H929 human cancer cell lines; H929 cells, 72 h, Cell TiterGlo, 10% FBS

Row | SMILES | GI50
12 | Cc1cc(OCCCc2c3n(c4c(-c5c(C)ncnc5C)c(C)ccc24)[C@H](C)CN(c2cccc4cc(C(=O)O)n(Cc5ccccn5)c24)C3=O)cc(C)c1Cl (atropisomer, axis not shown) [Example 276, (R)-7-(10-(3-(4-chloro-3,5-dimethylphenoxy)propyl)-6-(4,6-dimethylpyrimidin-5-yl)-4,7-dimethyl-1-oxo-3,4-dihydropyrazino[1,2-a]indol-2(1H)-yl)-1-(pyridin-2-ylmethyl)-1H-indole-2-carboxylic acid] | 290 nM
13 | Cc1cc(OCCCc2c3n(c4c(-c5c(C)nn(C)c5C)c(Cl)ccc24)[C@H](C)CN(c2cccc4cc(C(=O)O)ccc24)C3=O)cc(C)c1Cl [Example 187, (R)-5-(7-Chloro-10-(3-(4-chloro-3,5-dimethylphenoxy)propyl)-4-methyl-1-oxo-6-(1,3,5-trimethyl-1H-pyrazol-4-yl)-3,4-dihydropyrazino[1,2-a]indol-2(1H)-yl)-2-naphthoic acid] | < 200 nM
14 | Cc1cc(OCCCc2c3n(c4c(-c5c(C)nn(C)c5C)c(Cl)ccc24)CCCN(c2cc(C(=O)O)c4ccn(C)c4c2)C3=O)cc(C)c1Cl (single isomer, unassigned) [Example 440, 6-(8-chloro-11-(3-(4-chloro-3,5-dimethylphenoxy)propyl)-1-oxo-7-(1,3,5-trimethyl-1H-pyrazol-4-yl)-4,5-dihydro-1H-[1,4]diazepino[1,2-a]indol-2(3H)-yl)-1-methyl-1H-indole-4-carboxylic acid] | 4500 nM
